Read-outs that look alike come from different tables or passages of the source.
Columns and labels:
[1] = test system: SF-295; test: NCI 60 one dose screen; assay type: cell-based, human; settings: one dose; CNS Cancer; SF-295
[2] = test system: NCI-H522 (NSCLC); test: NCI 60 one dose screen; assay type: cell-based, human; settings: Non-small Cell Lung Cancer
[3] = test system: glioblastoma (SF-295); test: NCI 60 five dose screen
[4] = test system: 60 different human tumor cell lines; test: NCI Development Therapeutics Program 60 cell line screen, one dose; assay type: cell-based
[5] = test system: SR; test: NCI 60 five dose screen
[6] = test system: 60 different human tumor cell lines; settings: for TGI: five dose
[7] = test system: RPMI-8226; test: NCI 60 five dose screen
[8] = test system: SF-539; test: NCI 60 one dose screen; assay type: cell-based, human; settings: one dose; CNS Cancer; SF-539

With `C[C@]12CCc3sc(Nc4cccc(O)c4)nc3C1=CC[C@@H]1[C@@H]2CC[C@]2(C)C(=O)CC[C@@H]12` [IIa.17, (1S,2R,13R,14S,18S)-7-(3-hydroxyanilino)-2,18-dimethyl-6-thia-8-azapentacyclo[11.7.0.02,10.05,9.014,18]icosa-5(9),7,10-trien-17-one] the “Growth Percent” value [1] was −47.70%, the “Growth Percent” value [2] was −56.41% and the GI50 ([3]; Homo sapiens, SF-295) was 8.98 µM. For the same compound, the CC50 ([3]; Homo sapiens, SF-295, read-out: LC50) was greater than 100 µM, the TGI ([3]; SF-295 (CNS Cancer), five dose) was greater than 1.00E−4 and the “Growth Percent” value ([4]; Breast Cancer, BT-549) was 17.42%. The “Growth Percent” value ([4]; Breast Cancer, HS 578T) was 7.41%, the “Growth Percent” value ([4]; Breast Cancer, MCF7) was −25.89% and the “Growth Percent” value ([4]; Breast Cancer, MDA-MB-231/ATCC) was 39.51%. For the same compound, the “Growth Percent” value ([4]; Breast Cancer, MDA-MB-468) was 32.20%, the “Growth Percent” value ([4]; Breast Cancer, T-47D) was −8.55% and the “Growth Percent” value ([4]; CNS Cancer, SF-268) was 43.09%. The “Growth Percent” value ([4]; CNS Cancer, SNB-19) was 57.90%, the “Growth Percent” value ([4]; CNS Cancer, SNB-75) was 37.28% and the “Growth Percent” value ([4]; CNS Cancer, U251) was 18.85%. The “Growth Percent” value ([4]; Colon Cancer, COLO 205) was 34.38%, the “Growth Percent” value ([4]; Colon Cancer, HCC-2998) was 81.46% and the “Growth Percent” value ([4]; Colon Cancer, HCT-116) was −23.66%. For the same compound, the “Growth Percent” value ([4]; Colon Cancer, HT29) was −29.01%, the “Growth Percent” value ([4]; Colon Cancer, KM12) was 34.70% and the “Growth Percent” value ([4]; Colon Cancer, SW-620) was −4.13%. For the same compound, the “Growth Percent” value ([4]; Leukemia, CCRF-CEM) was 12.99%, the “Growth Percent” value ([4]; Leukemia, HL-60(TB)) was 45.99% and the “Growth Percent” value ([4]; Leukemia, K-562) was 4.81%. For the same compound, the “Growth Percent” value ([4]; Leukemia, MOLT-4) was 5.52%, the “Growth Percent” value ([4]; Leukemia, RPMI-8226) was −13.60% and the “Growth Percent” value ([4]; Leukemia, SR) was 3.61%. The “Growth Percent” value ([4]; Melanoma, LOX IMVI) was −52.69%, the “Growth Percent” value ([4]; Melanoma, M14) was 54.77% and the “Growth Percent” value ([4]; Melanoma, MALME-3M) was 35.26%. The “Growth Percent” value ([4]; Melanoma, MDA-MB-435) was 42.59%, the “Growth Percent” value ([4]; Melanoma, SK-MEL-2) was 29.07% and the “Growth Percent” value ([4]; Melanoma, SK-MEL-5) was 64.76%. The “Growth Percent” value ([4]; Melanoma, SK-MEL-28) was 41.25%, the “Growth Percent” value ([4]; Melanoma, UACC-62) was 28.83% and the “Growth Percent” value ([4]; Melanoma, UACC-257) was 79.56%. The “Growth Percent” value ([4]; Non-small Cell Lung Cancer, A549/ATCC) was 55.43%, the “Growth Percent” value ([4]; Non-small Cell Lung Cancer, EKVX) was 71.36% and the “Growth Percent” value ([4]; Non-small Cell Lung Cancer, HOP-62) was 27.50%. The “Growth Percent” value ([4]; Non-small Cell Lung Cancer, HOP-92) was 64.31%, the “Growth Percent” value ([4]; Non-small Cell Lung Cancer, NCI-H23) was 63.65% and the “Growth Percent” value ([4]; Non-small Cell Lung Cancer, NCI-H226) was 94.46%. The “Growth Percent” value ([4]; Non-small Cell Lung Cancer, NCI-H322M) was 72.84%, the “Growth Percent” value ([4]; Non-small Cell Lung Cancer, NCI-H460) was 43.90% and the “Growth Percent” value ([4]; Ovarian Cancer, IGROV1) was −12.12%. For the same compound, the “Growth Percent” value ([4]; Ovarian Cancer, NCI/ADR-RES) was 78.93%, the “Growth Percent” value ([4]; Ovarian Cancer, OVCAR-3) was −3.79% and the “Growth Percent” value ([4]; Ovarian Cancer, OVCAR-4) was 52.06%. The “Growth Percent” value ([4]; Ovarian Cancer, OVCAR-5) was 109.51%, the “Growth Percent” value ([4]; Ovarian Cancer, OVCAR-8) was 17.89% and the “Growth Percent” value ([4]; Ovarian Cancer, SK-OV-3) was 37.28%. For the same compound, the “Growth Percent” value ([4]; Prostate Cancer, DU-145) was 12.72%, the “Growth Percent” value ([4]; Prostate Cancer, PC-3) was 28.08% and the “Growth Percent” value ([4]; Renal Cancer, 786-0) was −0.52%. For the same compound, the “Growth Percent” value ([4]; Renal Cancer, ACHN) was 5.12%, the “Growth Percent” value ([4]; Renal Cancer, CAKI-1) was 37.11% and the “Growth Percent” value ([4]; Renal Cancer, RXF 393) was −6.67%. For the same compound, the “Growth Percent” value ([4]; Renal Cancer, SN12C) was 46.55%, the “Growth Percent” value ([4]; Renal Cancer, TK-10) was 10.18% and the “Growth Percent” value ([4]; Renal Cancer, UO-31) was 22.19%. It also gave a GI50 ([5]; Homo sapiens, SR) of 2.58 µM, a CC50 ([5]; Homo sapiens, SR, read-out: LC50) greater than 100 µM and a TGI ([5]; SR (Leukemia), five dose) greater than 1.00E−4. For the same compound, the LC50 [6] was “>l.00E−4”, the TGI ([6]; 786-0 (Renal Cancer)) was 1.31E−5 and the TGI ([6]; A498 (Renal Cancer)) was greater than 1.00E−4. The TGI ([6]; A549/ATCC (Non-small Cell Lung Cancer)) was greater than 1.00E−4, the TGI ([6]; ACHN (Renal Cancer)) was 2.95E−5 and the TGI ([6]; CAKI-1 (Renal Cancer)) was 3.02E−5. For the same compound, the TGI ([6]; CCRF-CEM (Leukemia)) was greater than 1.00E−4, the TGI ([6]; COLO 205 (Colon Cancer)) was 3.74E−5 and the TGI ([6]; DU-145 (Prostate Cancer)) was 4.09E−5. The TGI ([6]; EKVX (Non-small Cell Lung Cancer)) was greater than 1.00E−4, the TGI ([6]; HCC-2998 (Colon Cancer)) was 4.48E−5 and the TGI ([6]; HCT-15 (Colon Cancer)) was 9.71E−6. For the same compound, the TGI ([6]; HCT-116 (Colon Cancer)) was 4.17E−6, the TGI ([6]; HOP-62 (Non-small Cell Lung Cancer)) was greater than 1.00E−4 and the TGI ([6]; HOP-92 (Non-small Cell Lung Cancer)) was 6.79E−5. For the same compound, the TGI ([6]; HS 578T (Breast Cancer)) was greater than 1.00E−4, the TGI ([6]; HT29 (Colon Cancer)) was 1.76E−5 and the TGI ([6]; IGROV1 (Ovarian Cancer)) was greater than 1.00E−4. It also gave a TGI ([6]; K-562 (Leukemia)) greater than 1.00E−4, a TGI ([6]; KM12 (Colon Cancer)) of 2.94E−5 and a TGI ([6]; LOX IMVI (Melanoma)) of 1.08E−5. For the same compound, the TGI ([6]; M14 (Melanoma)) was 5.09E−5, the TGI ([6]; MALME-3M (Melanoma)) was greater than 1.00E−4 and the TGI ([6]; MCF7 (Breast Cancer)) was 3.28E−5. For the same compound, the TGI ([6]; MDA-MB-231/ATCC (Breast Cancer)) was greater than 1.00E−4, the TGI ([6]; MDA-MB-435 (Melanoma)) was greater than 1.00E−4 and the TGI ([6]; MDA-MB-468 (Breast Cancer)) was 1.46E−5. The TGI ([6]; MOLT-4 (Leukemia)) was greater than 1.00E−4, the TGI ([6]; NCI-H23 (Non-small Cell Lung Cancer)) was greater than 1.00E−4 and the TGI ([6]; NCI-H226 (Non-small Cell Lung Cancer)) was 4.50E−5. It also gave a TGI ([6]; NCI-H322M (Non-small Cell Lung Cancer)) greater than 1.00E−4, a TGI ([6]; NCI-H460 (Non-small Cell Lung Cancer)) of 2.79E−5 and a TGI ([6]; NCI-H522 (Non-small Cell Lung Cancer)) of 2.36E−5. For the same compound, the TGI ([6]; NCI/ADR-RES (Ovarian Cancer)) was greater than 1.00E−4, the TGI ([6]; OVCAR-3 (Ovarian Cancer)) was 5.08E−5 and the TGI ([6]; OVCAR-4 (Ovarian Cancer)) was greater than 1.00E−4. For the same compound, the TGI ([6]; OVCAR-5 (Ovarian Cancer)) was greater than 1.00E−4, the TGI ([6]; OVCAR-8 (Ovarian Cancer)) was greater than 1.00E−4 and the TGI ([6]; PC-3 (Prostate Cancer)) was 6.37E−5. The TGI ([6]; RXF 393 (Renal Cancer)) was 1.42E−5, the TGI ([6]; SF-268 (CNS Cancer)) was 7.00E−5 and the TGI ([6]; SK-MEL-2 (Melanoma)) was 6.08E−5. The TGI ([6]; SK-MEL-5 (Melanoma)) was 2.60E−5, the TGI ([6]; SK-MEL-28 (Melanoma)) was greater than 1.00E−4 and the TGI ([6]; SK-OV-3 (Ovarian Cancer)) was greater than 1.00E−4. For the same compound, the TGI ([6]; SN12C (Renal Cancer)) was 2.53E−5, the TGI ([6]; SNB-19 (CNS Cancer)) was greater than 1.00E−4 and the TGI ([6]; SNB-75 (CNS Cancer)) was 7.25E−5. It also gave a TGI ([6]; SW-620 (Colon Cancer)) of 1.56E−5, a TGI ([6]; T-47D (Breast Cancer)) greater than 1.00E−4 and a TGI ([6]; TK-10 (Renal Cancer)) of 5.48E−5. For the same compound, the TGI ([6]; U251 (CNS Cancer)) was 1.93E−5, the TGI ([6]; UACC-62 (Melanoma)) was 2.96E−4 and the TGI ([6]; UACC-257 (Melanoma)) was 9.45E−5. It also gave a TGI ([6]; UO-31 (Renal Cancer)) of 1.94E−5, a GI50 ([7]; Homo sapiens, RPMI-8226) of 2.73 µM and a CC50 ([7]; Homo sapiens, RPMI-8226, read-out: LC50) greater than 100 µM. For the same compound, the TGI ([7]; RPMI-8226 (Leukemia), five dose) was 7.44E−6 and the “Growth Percent” value [8] was −41.82%.

— US20250296953A1, “3,4-THIAZOLO-STEROIDS AND METHODS OF MAKING AND USING THE SAME” (Arkansas State University - Jonesboro, priority 2018, published 2025)
